{
  "source": "patent US9051348B2",
  "about": "“Ginsenoside with anti-cancer activity and the preparation method thereof” (Macau University of Science and Technology, priority 2012, dated 2015)",
  "key": {"[1]": {"system": "lung cancer cells (LLC-1)", "experiment": "MTT cytotoxicity assay in LLC-1 cells", "type": "cell-based, mouse", "method": "(§1) The novel compound was dissolved in DMSO at final concentration of 100 mmol/L and stored at −20° C. Cytotoxicity was assessed using the 3-(4,5-dimethylthiazol-2-yl)-2,5-diphenyltetrazolium bromide assay as described previously. Several kinds of cells were seeded on 96-well plates, namely MCF-7, 4000 cells; HepG2, 4000 cells; HeLa, 3000 cells; A549, 4000 cells; LLC-1, 3000 cells; H1299, 3000 cells; CCD19Lu, 4000 cells per well. After overnight pre-incubation, the cells were exposed to different concentrations of the novel compound (0.039-100 μmol/L) or control compounds 20(S)-Rh2 and 20(R)-Rh2 for 3 days. Subsequently, 10 μL of MTT reagents was added to each well and incubated at 37° C. for 4 hours followed by the addition of 100 μL solubilization buffer (10% SDS in 0.01 mol/L HCl) and overnight incubation. A585 nm was determined from each well the next day. The percentage of viable cells was calculated using the following formula: Cell viability (%)=Atreated/Acontrol×100. Data was obtained from three independent experiments."}, "[2]": {"system": "human normal lung fibroblasts CCD19Lu", "experiment": "MTT cytotoxicity assay in CCD19Lu cells", "type": "cell-based", "method": "as §1"}, "[3]": {"system": "several tumor cell lines", "conditions": "literature [2], cited from earlier work"}, "[4]": {"system": "osteoclastgenesis", "conditions": "literature [2]; cited from earlier work"}, "[5]": {"system": "panel of 7 tumor cell lines and human normal lung fibroblasts", "conditions": "previous studies of the inventors, cited from earlier work"}, "[6]": {"conditions": "in cell culture; previous studies of the inventors; cited from earlier work"}, "[7]": {"conditions": "literature [4]; cited from earlier work"}, "[8]": {"experiment": "MTT cytotoxicity assay in CCD19Lu cells", "type": "cell-based, human", "conditions": "human", "method": "as §1"}, "[9]": {"system": "other five cancer cell lines (MCF-7, HepG2, HeLa, A549, H1299)", "type": "cell-based", "method": "as §1"}, "[10]": {"system": "LLC-1 tumor", "type": "in vivo, male C57BL/6J mice", "conditions": "for suppression on the tumor growth: 21-day treatment, vs vehicle", "method": "The LLC-1 cells harvested from in vitro culture were adjusted to a concentration of 1.5×10^7/mL and 0.1 mL cell suspension was injected subcutaneously into the dorsal region of the male C57BL/6J mice. Subsequently, when 70% of mice had developed tumor into a volume (length×width^2×0.52) larger than 50 mm^3, the animals were randomly divided into the vehicle control and several treatment groups. The novel compound powder was dissolved with PEG400:ethanol:distilled water in a ratio of 60%:10%:30% (v/v/v), and orally administrated to mice by gavage feeding at doses of 10, 20, 40 and 80 mg/kg/day for 21 consecutive days. Oral administration of 80 mg/kg/day 20(R)-Rh2, 20(S)-Rh2 and 20(S)-Rg3, and 10 mg/kg/day 5-Fu were designed as control groups. In order to make sure all groups were appropriately blended, all the experimental procedures such as subcutaneous tumor cells injection, treatment and tumor size measurement were performed by three individual persons who were blended for animal group identity."}, "[11]": {"experiment": "Sub-chronic lethal dose study, 7-day repeated oral dosing", "type": "in vivo, male C57BL/6J mice", "conditions": "160 and 320 mg/kg/day oral, 7-day treatment", "method": "10 male C57BL/6J mice were divided into two treatment groups, i.e. 160 mg/kg/day and 320 mg/kg/day. The novel compound powder was dissolved with PEG400:ethanol:distilled water in a ratio of 60%:10%:30% (v/v/v), and orally administrated to mice by gavage feeding at doses of 160 and 320 mg/kg/day for 7 consecutive days. The health condition of the animals was monitored and their body weights were recorded during this 7 days treatment duration."}, "[12]": {"experiment": "Acute oral toxicity, OECD Test Guideline 423, 14-day", "type": "in vivo, C57BL/6J mice", "method": "The acute oral toxicity of the novel compound was evaluated in line with the Organization for Economic Cooperation and Development (OECD) Guideline for Testing Chemicals—Acute Oral Toxicity—Acute Toxic Class Method (Test Guideline 423, Adopted on 17 Dec. 2001). Based on the result of Example 4, the Test Procedure with a Starting Dose of 2000 mg/kg (Annex 2d of OECD 423) was selected to evaluate the acute toxicity of the novel compound. In the test, 3 female and 3 male C57BL/6J mice (SPF grade) were fasted overnight and then orally administrated by gavage feeding with single dose of the novel compound solution at 2000 mg/kg."}},
  "note": "Like-named read-outs stand apart in the source and are kept apart here.",
  "data": [
    {"smiles": "CC(C)=CCC[C@@](C)(O)[C@H]1CC[C@]2(C)[C@@H]1[C@H](O)C[C@@H]1[C@@]3(C)CC[C@H](O[C@@H]4O[C@H](CO)[C@@H](O)[C@H](O)[C@H]4O)C(C)(C)[C@@H]3CC[C@]12C", "note": "[20(R)-Rh2, 20(R)-ginsenoside Rh2]", "values": [
      {"measurement": "cytotoxicity (in words)", "setting": "[1]; LLC-1 cells, MTT, 3 days exposure", "value": "no cytotoxicity"},
      {"measurement": "cytotoxicity (in words)", "setting": "[2]; CCD19Lu cells, MTT, 3 days exposure", "value": "no cytotoxicity"},
      {"measurement": "cell cytotoxicity (in words)", "setting": "[3]", "value": "without any cell cytotoxicity"},
      {"measurement": "osteoclastgenesis inhibition (in words)", "setting": "[4]", "value": "selective osteoclastgenesis inhibitor"},
      {"measurement": "concentration up to which no cytotoxic effect", "setting": "[5]; in cell culture", "value": "> 100", "unit": "µM"},
      {"measurement": "solubility (in words)", "setting": "[6]", "value": "poor solubility"},
      {"measurement": "intestinal absorption (in words)", "setting": "[7]", "value": "lower absorption profiles"}
    ]},
    {"smiles": "CC(C)=CCC[C@](C)(O)[C@H]1CC[C@]2(C)[C@@H]1[C@H](O)C[C@@H]1[C@@]3(C)CC[C@H](O[C@@H]4O[C@H](CO)[C@@H](O)[C@H](O)[C@H]4O)C(C)(C)[C@@H]3CC[C@]12C", "note": "[20(S)-Rh2]", "values": [
      {"measurement": "IC50", "setting": "[1]", "value": 46.5, "unit": "µM"},
      {"measurement": "IC50", "setting": "[2]", "value": 80.5, "unit": "µM"},
      {"measurement": "IC50", "setting": "[3]; several tumor cell lines, read-out: cytotoxicity, IC50", "value": "22 to 50", "unit": "µM"},
      {"measurement": "IC50", "setting": "[5]; panel of 7 tumor cell lines and human normal lung fibroblasts, read-out: cytotoxicity, IC50", "value": "45 to 65", "unit": "µM"}
    ]},
    {"smiles": "CC(C)=CCC[C@](C)(O)[C@H]1CC[C@]2(C)[C@@H]1[C@H](O)C[C@@H]1[C@@]3(C)CC[C@H](O[C@@H]4O[C@H](CO)[C@@H](O)[C@H](O)[C@H]4O)C(C)(C)[C@@H]3CC[C@]12C", "note": "[Rh2, Ginsenoside Rh2]", "values": [
      {"measurement": "intestinal absorption (in words)", "setting": "[7]", "value": "poor intestinal absorption"},
      {"measurement": "permeability (in words)", "setting": "[7]", "value": "poor permeability"}
    ]},
    {"smiles": "CC(C)(O)C1CC[C@](C)(C2CC[C@]3(C)C2[C@H](O)CC2[C@@]4(C)CC[C@H](O[C@@H]5OC(CO)[C@@H](O)C(O)C5O)C(C)(C)C4CC[C@]23C)O1", "note": "(stereo partly drawn) [novel compound]", "values": [
      {"measurement": "IC50", "setting": "[1]; Mus musculus, LLC1, 72 h, read-out: cytotoxic effect, IC50", "value": 56, "unit": "µM"},
      {"measurement": "IC50 at 3 days", "setting": "[8]", "value": "> 100", "unit": "µM"},
      {"measurement": "cytotoxic potency (in words)", "setting": "[9]", "value": "dose-dependent cytotoxic potency"},
      {"measurement": "suppression on the tumor growth", "setting": "[10]; 10 mg/kg/day oral, P>0.05", "value": 35.24, "unit": "%"},
      {"measurement": "suppression on the tumor growth", "setting": "[10]; 20 mg/kg/day oral, P>0.05", "value": 40.49, "unit": "%"},
      {"measurement": "suppression on the tumor growth", "setting": "[10]; 40 mg/kg/day oral, P<0.05", "value": 44.9, "unit": "%"},
      {"measurement": "suppression on the tumor growth", "setting": "[10]; 80 mg/kg/day oral, P<0.01", "value": 52.04, "unit": "%"},
      {"measurement": "adverse impacts on the major organs and body weight", "setting": "[10]; mouse, in vivo, po", "value": "without observable adverse impacts"},
      {"measurement": "animal survival", "setting": "[11]", "value": 100, "unit": "%"},
      {"measurement": "body weight", "setting": "[11]", "value": "no significant drop of body weight"},
      {"measurement": "Globally Harmonized Classification System (GHS) class", "setting": "[12]; acute oral toxicity, OECD Test Guideline 423", "value": "Class 5 or unclassified"},
      {"measurement": "LD50 at 14 days", "setting": "[12]; both sexes, C57BL/6J, mouse, in vivo, 2000 mg/kg, oral, mice, estimated per OECD Test Guideline 423 criteria", "value": "> 5000", "unit": "mg/kg"},
      {"measurement": "body weight and sign of toxicity", "setting": "[12]; single oral dose 2000 mg/kg, 14 days", "value": "no significant drop of body weight and sign of toxicity"},
      {"measurement": "animal death", "setting": "[12]; single oral dose 2000 mg/kg, 14 days, both gender", "value": "zero animal death"}
    ]}
  ]
}
